Measurements as given in publication PMC5448077, “Development of an orally available inhibitor of CLK1 for skipping a mutated dystrophin exon in Duchenne muscular dystrophy” (Scientific Reports, 2017).

What was measured:
Experiment in all cases: biochemical
ABL(E255K) = molecular target: T1, ABL(E255K) (Homo sapiens, UniProt P00519, E255K)
T1 construct: gene ABL1
Outline: (§1)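 Human kinases phosphorylating kinase-specific synthetic peptides, assayed by mobility shift (MSA) or IMAP fluorescence polarization, in 20 mM HEPES pH 7.5, 0.01% Triton X-100, 2 mM DTT with substrate/ATP-metal. Reactions ran 1 or 5 h at room temperature; activity = P/(P + S) from product and substrate peak heights.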

ALK(L1196M) = ALK(L1196M) (Homo sapiens, UniProt Q9UM73, L1196M)
Chain of ALK(L1196M) (Q9UM73 whole entry L1196M): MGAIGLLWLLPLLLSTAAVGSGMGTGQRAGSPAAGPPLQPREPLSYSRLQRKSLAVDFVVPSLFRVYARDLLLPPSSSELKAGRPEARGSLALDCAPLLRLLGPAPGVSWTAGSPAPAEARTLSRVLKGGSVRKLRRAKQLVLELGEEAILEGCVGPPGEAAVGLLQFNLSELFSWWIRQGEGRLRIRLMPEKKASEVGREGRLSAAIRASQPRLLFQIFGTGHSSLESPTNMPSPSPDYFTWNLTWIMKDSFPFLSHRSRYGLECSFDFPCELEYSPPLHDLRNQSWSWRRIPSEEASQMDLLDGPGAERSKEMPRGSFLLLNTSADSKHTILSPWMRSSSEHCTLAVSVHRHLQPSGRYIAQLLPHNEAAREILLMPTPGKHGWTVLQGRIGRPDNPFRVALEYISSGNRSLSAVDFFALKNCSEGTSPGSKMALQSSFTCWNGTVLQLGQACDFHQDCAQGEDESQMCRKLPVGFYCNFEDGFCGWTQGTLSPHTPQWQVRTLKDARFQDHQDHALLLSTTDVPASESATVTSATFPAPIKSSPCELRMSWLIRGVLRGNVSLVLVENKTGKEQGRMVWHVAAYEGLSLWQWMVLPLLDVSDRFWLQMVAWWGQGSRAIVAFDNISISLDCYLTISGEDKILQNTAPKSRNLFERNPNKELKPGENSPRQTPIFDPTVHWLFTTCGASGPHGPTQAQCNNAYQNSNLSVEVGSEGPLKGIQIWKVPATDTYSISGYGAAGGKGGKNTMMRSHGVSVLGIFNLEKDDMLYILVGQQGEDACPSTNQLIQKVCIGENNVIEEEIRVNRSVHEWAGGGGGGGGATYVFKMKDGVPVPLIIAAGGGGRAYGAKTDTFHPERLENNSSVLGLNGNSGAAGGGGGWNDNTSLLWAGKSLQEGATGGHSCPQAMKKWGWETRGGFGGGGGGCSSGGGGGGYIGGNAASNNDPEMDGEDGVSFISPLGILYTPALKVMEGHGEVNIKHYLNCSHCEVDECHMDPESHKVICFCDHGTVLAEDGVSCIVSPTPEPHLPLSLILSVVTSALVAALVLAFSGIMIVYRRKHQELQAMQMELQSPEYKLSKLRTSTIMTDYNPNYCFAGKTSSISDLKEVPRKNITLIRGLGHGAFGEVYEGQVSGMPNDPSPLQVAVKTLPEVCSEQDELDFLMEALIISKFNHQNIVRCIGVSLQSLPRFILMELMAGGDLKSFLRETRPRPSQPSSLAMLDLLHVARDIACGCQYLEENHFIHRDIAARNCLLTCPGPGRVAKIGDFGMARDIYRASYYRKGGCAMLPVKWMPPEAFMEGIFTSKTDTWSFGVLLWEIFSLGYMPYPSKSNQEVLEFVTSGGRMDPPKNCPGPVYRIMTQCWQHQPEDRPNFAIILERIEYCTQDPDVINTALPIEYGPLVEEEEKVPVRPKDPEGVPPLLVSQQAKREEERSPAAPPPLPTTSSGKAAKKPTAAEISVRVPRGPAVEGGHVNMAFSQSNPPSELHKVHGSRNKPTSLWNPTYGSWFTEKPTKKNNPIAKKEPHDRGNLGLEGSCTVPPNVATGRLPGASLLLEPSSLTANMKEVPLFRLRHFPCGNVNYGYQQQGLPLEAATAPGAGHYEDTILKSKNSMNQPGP
Outline: as §1

AMPKα2/β1/γ1 = molecular target: T2, AMPKα2/β1/γ1 (Homo sapiens, UniProt P54646)
T2 construct: gene PRKAA2
Outline: as §1

AurA/TPX2 = molecular target: T3, AurA/TPX2 (Homo sapiens, UniProt O14965)
T3 construct: gene AURKA
Outline: as §1

CDC2/CycB1 = molecular target: T4, CDC2/CycB1 (Homo sapiens, UniProt P06493)
T4 construct: gene CDK1
T4 sequence (P06493 whole entry): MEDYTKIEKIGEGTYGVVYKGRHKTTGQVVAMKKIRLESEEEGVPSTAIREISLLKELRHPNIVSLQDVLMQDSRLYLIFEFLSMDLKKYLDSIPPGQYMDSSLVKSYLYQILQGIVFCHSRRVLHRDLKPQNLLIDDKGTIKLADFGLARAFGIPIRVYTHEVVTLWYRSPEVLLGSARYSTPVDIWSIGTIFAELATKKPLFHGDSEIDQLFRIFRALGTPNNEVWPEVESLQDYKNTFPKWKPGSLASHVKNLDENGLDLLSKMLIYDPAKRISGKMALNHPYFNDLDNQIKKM
T4 sequence (P14635 whole entry partner): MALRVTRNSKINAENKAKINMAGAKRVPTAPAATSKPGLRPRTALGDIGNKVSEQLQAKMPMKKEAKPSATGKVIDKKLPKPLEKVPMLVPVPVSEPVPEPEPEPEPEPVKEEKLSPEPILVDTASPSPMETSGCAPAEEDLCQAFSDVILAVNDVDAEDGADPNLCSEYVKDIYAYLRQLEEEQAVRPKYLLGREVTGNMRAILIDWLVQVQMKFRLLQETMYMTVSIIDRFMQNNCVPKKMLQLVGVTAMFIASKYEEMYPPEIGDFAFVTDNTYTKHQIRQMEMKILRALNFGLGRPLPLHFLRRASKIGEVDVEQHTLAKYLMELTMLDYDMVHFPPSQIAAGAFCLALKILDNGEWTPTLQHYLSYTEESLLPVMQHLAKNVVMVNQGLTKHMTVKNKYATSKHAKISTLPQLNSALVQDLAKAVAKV
Outline: as §1

CDK5/p25 = molecular target: T5, CDK5/p25 (Homo sapiens, UniProt Q00535)
T5 construct: p25
Outline: as §1

CDK6/CycD3 = CDK6/CycD3 (Homo sapiens, UniProt Q00534)
Outline: as §1

CHK1 = molecular target: T6, CHK1 (Homo sapiens, UniProt O14757)
T6 construct: gene CHEK1
Outline: as §1

CK1γ3 = molecular target: T7, CK1γ3 (Homo sapiens, UniProt Q9Y6M4)
T7 construct: gene CSNK1G3
Outline: as §1

DDR2 = DDR2 (Homo sapiens, UniProt Q16832)
Outline: as §1

FER = FER (Homo sapiens, UniProt P16591)
Outline: as §1

FGFR1(V561M) = FGFR1(V561M) (Homo sapiens, UniProt P11362, V561M)
Outline: as §1

FGFR3(K650E) = FGFR3(K650E) (Homo sapiens, UniProt P22607, K650E)
Outline: as §1

IRAK1 = IRAK1 (Homo sapiens, UniProt P51617)
Outline: as §1

IRAK4 = IRAK4 (Homo sapiens, UniProt Q9NWZ3)
Outline: as §1

KIT(D816V) = KIT(D816V) (Homo sapiens, UniProt P10721, D816V)
Outline: as §1

LATS2 = LATS2 (Homo sapiens, UniProt Q9NRM7)
Outline: as §1

MAP4K2 = MAP4K2 (Homo sapiens, UniProt Q12851)
Outline: as §1

MET(D1228H) = MET(D1228H) (Homo sapiens, UniProt P08581, D1228H)
Outline: as §1

MRCKα = molecular target: T8, MRCKα (Homo sapiens, UniProt Q5VT25)
T8 construct: gene CDC42BPA
T8 sequence (Q5VT25 whole entry): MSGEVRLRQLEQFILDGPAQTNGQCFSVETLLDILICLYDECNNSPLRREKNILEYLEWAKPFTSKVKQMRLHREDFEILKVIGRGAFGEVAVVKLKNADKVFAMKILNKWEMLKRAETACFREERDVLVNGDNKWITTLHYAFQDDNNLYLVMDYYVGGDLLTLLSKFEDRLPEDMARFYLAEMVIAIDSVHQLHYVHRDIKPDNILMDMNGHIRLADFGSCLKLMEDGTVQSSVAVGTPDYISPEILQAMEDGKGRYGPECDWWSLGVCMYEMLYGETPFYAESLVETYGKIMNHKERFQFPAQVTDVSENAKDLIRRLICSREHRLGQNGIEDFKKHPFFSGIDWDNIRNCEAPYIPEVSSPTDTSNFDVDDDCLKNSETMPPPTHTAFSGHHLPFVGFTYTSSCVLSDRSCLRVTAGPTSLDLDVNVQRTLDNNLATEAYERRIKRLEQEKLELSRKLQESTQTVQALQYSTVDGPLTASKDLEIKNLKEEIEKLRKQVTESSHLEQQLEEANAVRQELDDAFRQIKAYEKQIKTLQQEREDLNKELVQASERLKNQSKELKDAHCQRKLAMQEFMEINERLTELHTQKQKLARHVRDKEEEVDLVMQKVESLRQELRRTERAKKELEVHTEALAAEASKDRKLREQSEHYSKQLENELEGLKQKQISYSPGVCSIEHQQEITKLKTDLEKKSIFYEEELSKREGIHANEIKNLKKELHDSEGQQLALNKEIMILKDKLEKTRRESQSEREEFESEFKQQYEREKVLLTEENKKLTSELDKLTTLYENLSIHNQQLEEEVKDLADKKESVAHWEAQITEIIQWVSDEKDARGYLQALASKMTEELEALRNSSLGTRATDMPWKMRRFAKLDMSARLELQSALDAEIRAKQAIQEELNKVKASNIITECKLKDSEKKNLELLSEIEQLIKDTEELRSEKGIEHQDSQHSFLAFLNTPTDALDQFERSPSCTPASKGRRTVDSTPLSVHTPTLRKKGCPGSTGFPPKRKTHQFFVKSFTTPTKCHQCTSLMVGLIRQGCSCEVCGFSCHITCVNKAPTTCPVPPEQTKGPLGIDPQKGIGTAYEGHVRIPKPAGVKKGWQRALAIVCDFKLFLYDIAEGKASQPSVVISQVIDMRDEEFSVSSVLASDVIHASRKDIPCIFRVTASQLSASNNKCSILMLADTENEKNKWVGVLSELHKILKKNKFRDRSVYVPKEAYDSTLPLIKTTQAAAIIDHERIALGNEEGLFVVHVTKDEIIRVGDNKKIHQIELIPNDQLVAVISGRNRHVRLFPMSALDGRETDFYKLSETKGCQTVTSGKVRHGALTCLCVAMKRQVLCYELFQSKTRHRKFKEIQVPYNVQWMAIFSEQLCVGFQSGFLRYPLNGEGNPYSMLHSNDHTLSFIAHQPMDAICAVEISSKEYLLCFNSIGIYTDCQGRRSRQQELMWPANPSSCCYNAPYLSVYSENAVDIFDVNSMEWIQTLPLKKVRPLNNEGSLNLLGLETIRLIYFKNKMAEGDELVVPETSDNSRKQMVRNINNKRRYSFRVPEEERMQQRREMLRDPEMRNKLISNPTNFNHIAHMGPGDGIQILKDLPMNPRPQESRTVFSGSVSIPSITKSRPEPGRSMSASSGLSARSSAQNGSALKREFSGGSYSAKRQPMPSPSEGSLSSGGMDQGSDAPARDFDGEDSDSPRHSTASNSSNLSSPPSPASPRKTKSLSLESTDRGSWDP
Outline: as §1

NEK9 = NEK9 (Homo sapiens, UniProt Q8TD19)
Outline: as §1

PKCβ1 = molecular target: T9, PKCβ1 (Homo sapiens, UniProt P05771)
T9 construct: gene PRKCB; isoform beta 1
Outline: as §1

PKCε = molecular target: T10, PKCε (Homo sapiens, UniProt Q02156)
T10 construct: gene PRKCE
Outline: as §1

PKD3 = molecular target: T11, PKD3 (Homo sapiens, UniProt O94806)
T11 construct: gene PRKD3
Outline: as §1

PKN1 = PKN1 (Homo sapiens, UniProt Q16512)
Outline: as §1

PKR = molecular target: T12, PKR (Homo sapiens, UniProt P19525)
T12 construct: gene EIF2AK2
Outline: as §1

RET(S891A) = RET(S891A) (Homo sapiens, UniProt P07949, S891A)
Outline: as §1

RSK1 = molecular target: T13, RSK1 (Homo sapiens, UniProt Q15418)
T13 construct: gene RPS6KA1
Outline: as §1

SRPK1 = SRPK1 (Homo sapiens, UniProt Q96SB4)
Outline: as §1

TNK1 = TNK1 (Homo sapiens, UniProt Q13470)
Chain of TNK1 (Q13470 whole entry): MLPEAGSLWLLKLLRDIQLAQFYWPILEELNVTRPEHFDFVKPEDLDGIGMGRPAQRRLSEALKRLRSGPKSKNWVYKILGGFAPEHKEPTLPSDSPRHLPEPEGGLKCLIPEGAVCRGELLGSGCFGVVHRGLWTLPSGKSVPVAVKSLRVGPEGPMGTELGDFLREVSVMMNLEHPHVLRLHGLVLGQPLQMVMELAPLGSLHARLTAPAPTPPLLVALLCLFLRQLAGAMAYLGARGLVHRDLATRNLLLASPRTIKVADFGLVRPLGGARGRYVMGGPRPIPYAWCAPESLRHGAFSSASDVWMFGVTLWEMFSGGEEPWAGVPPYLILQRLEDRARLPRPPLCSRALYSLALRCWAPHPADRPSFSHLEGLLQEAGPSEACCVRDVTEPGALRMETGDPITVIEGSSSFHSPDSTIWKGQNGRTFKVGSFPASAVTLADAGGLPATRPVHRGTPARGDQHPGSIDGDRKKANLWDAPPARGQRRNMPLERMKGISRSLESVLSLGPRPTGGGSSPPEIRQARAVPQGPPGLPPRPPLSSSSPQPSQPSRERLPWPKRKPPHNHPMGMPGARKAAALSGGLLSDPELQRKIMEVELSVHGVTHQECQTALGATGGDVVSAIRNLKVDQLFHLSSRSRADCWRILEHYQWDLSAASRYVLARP
Outline: as §1

`c1cc(-c2ccc3[nH]ncc3c2)ccn1` [TG693, 5-(4-pyridinyl)-1H-indazole] showed an inhibition at 1 µM (ABL(E255K)) of -4.2%, an inhibition at 1 µM (ALK(L1196M)) of 2.6% and an inhibition at 1 µM (AMPKα2/β1/γ1) of 1.7%. The inhibition at 1 µM (AurA/TPX2) was 8.5%, the inhibition at 1 µM (CDC2/CycB1) was 10.3% and the inhibition at 1 µM (CDK5/p25) was 21.8%. For the same molecule, the inhibition at 1 µM (CDK6/CycD3) was 9.1%, the inhibition at 1 µM (CHK1) was 1.7% and the inhibition at 1 µM (CK1γ3) was -7.7%. For the same molecule, the inhibition at 1 µM (DDR2) was -2.2%, the inhibition at 1 µM (FER) was 4.4% and the inhibition at 1 µM (FGFR1(V561M)) was -11.6%. The inhibition at 1 µM (FGFR3(K650E)) was 5.2%, the inhibition at 1 µM (IRAK1) was 4.2% and the inhibition at 1 µM (IRAK4) was 8.4%. The inhibition at 1 µM (KIT(D816V)) was -1.1%, the inhibition at 1 µM (LATS2) was -3.8% and the inhibition at 1 µM (MAP4K2) was 1.9%. For the same molecule, the inhibition at 1 µM (MET(D1228H)) was 0.6%, the inhibition at 1 µM (MRCKα) was -18.2% and the inhibition at 1 µM (NEK9) was -5.1%. It also gave an inhibition at 1 µM (PKCβ1) of -11.4%, an inhibition at 1 µM (PKCε) of 12.3% and an inhibition at 1 µM (PKD3) of -9%. It also gave an inhibition at 1 µM (PKN1) of 34.5%, an inhibition at 1 µM (PKR) of 1.2% and an inhibition at 1 µM (RET(S891A)) of -18%. It also gave an inhibition at 1 µM (RSK1) of -4.7%, an inhibition at 1 µM (SRPK1) of 0.6% and an inhibition at 1 µM (TNK1) of 3.8%.
